Test results as given in patent US7429238B2, “Systems and methods for the generation of crystalline polymorphs” (priority 2001, dated 2008).

Key:
[1] = following a single oral dose, average; cited from earlier work
[2] = rat, in vivo; cited from earlier work
[3] = Differential scanning calorimetry of the new carbamazepine polymorph; format: physicochemical; conditions: scan rate of 10° C./minute
[4] = Infrared of single crystals versus KBr pellets (phase transformation under pressure); format: physicochemical; conditions: KBr pellets produced at 10,000 psi vs infrared microscopy of single crystals
Source text: The corresponding peaks in the new polymorph are found at 3474, 3149, 1674, 1394, 773, and 765 cm^−1. […] Significant differences in the IR spectra of two different polymorphs provide a fast, reliable method of polymorph characterization despite the fact that a hydrogen-bonded dimer is observed in the crystal structure of both polymorphs. […] Therefore, it is contemplated that this new form has good shelf life (kinetic trapping of the unstable form).

[5] = cited from earlier work
[6] = room temperature; cited from earlier work

Compound: NC(=O)N1c2ccccc2C=Cc2ccccc21 [carbamazepine]
- elimination half-life of unchanged carbamazepine in the plasma [1]: approximately 36 hours
- long-term toxicity finding [2]: potential carcinogenic risk

Compound: NC(=O)N1c2ccccc2C=Cc2ccccc21 [new polymorph, carbamazepine]
- phase transitions by differential scanning calorimetry [3]: absence of phase transitions below 184 °C
- phase transformation under pressure [4]: not taking place

Compound: CC(=O)Nc1ccc(O)cc1 [orthorhombic polymorph, 4-acetamidophenol]
- solubility relative to the monoclinic form [5]: more soluble

Compound: NC(=O)N1c2ccccc2C=Cc2ccccc21 [trigonal form, carbamazepine]
- solid form stability in solvent [6]: undergoes solvent-mediated conversion to the monoclinic crystal
